Laboratory results taken from patent US5643784A, “Indan derivatives” (H, Lundbeck A/S, priority 1990, dated 1997).

Columns and labels:
α1 adrenoceptors = test: Inhibition of 3H-prazosin binding to α1 adrenoceptors in rat brain in vitro; conditions: for IC50: 3H-Prazosin 0.25 nM, rat brain, 25° C., 20 min, read-out: Receptor Binding, IC50 α1 3H-Praz
Protocol: INHIBITION OF ^3 H-PRAZOSIN BINDING TO α1 ADRENOCEPTORS IN RAT BRAIN IN VITRO
Method and results in Hyttel & Larsen, J. Neurochem, 44, 1615-1622, 1985; Skarsfeldt & Hyttel, Eur. J. Pharmacol. 125, 323-340, 1986.
(§1) Male Wistar (Mol:Wist) rats (125-200 g) are sacrificed and brain tissue is dissected and weighed. The tissue is homogenized (Ultra Turrax, 10 sec.) in 10 ml of ice-cold 50 nM Tris buffer pH 7,7 (at 25° C.). The homogenate is centrifuged twice at 20,000 g for 10 min. at 4° C. with rehomogenization of the pellet in 10 ml ice-cold buffer. The final pellet is homogenized in 400 vol (w/v) ice-cold buffer.
Incubation tubes kept on ice in triplicate receive 100 μl of drug solution in water (or water for total binding) and 4000μl of tissue suspension (final tissue content corresponds to 10 mg original tissue). The binding experiment is initiated by addition of 100 μl of ^3 H-Prazosin (final concentration 0.25 nM) and by placing the tubes in a 25° C. water bath. After incubation for 20 min. the samples are filtered under vacuum (0-50 mBar) through Whatman GF/F filters (25 mm). The tubes are rinsed with 5 ml ice-cold buffer which then are poured on the filters. Thereafter, the filters are washed with 5 ml of buffer. The filters are placed in counting vials and 4 ml of appropriate scintillation fluid (e.g. Picofluor™15) are added. After shaking for 1 h and storage 2 hrs in the dark the content of radioactivity is determined by liquid scintillation counting. Specific binding is obtained by subtracting the nonspecific binding in the presence of 1 μM of Prazosin.
(§2) For determination of the inhibition of binding five concentrations of drugs covering 3 decades are used.
The measured cpm are plotted against drug concentration on semilogarithmic paper and the best fitting S-shaped curve is drawn. The IC50 value is determined as the concentration at which the binding is 50% of the total binding in control samples minus the nonspecific binding in the presence of 1 μM of Prazosin.
^3 H-Prazosin=[furoyl-5-^3 H]-Prazosin from New England Nuclear, specific activity approximately 20 Ci/mmol.

dopamine D-2 receptors = target: T1, dopamine D-2 receptors (Rattus norvegicus, UniProt P61169); test: Inhibition of 3H-spiperone binding to dopamine D-2 receptors in rat corpus striatum in vitro; conditions: for IC50: 3H-spiperone 0.5 nM, rat corpus striatum, 37° C., 10 min, read-out: Receptor Binding, IC50 DA D-2 3H-Spi
T1 construct: striatal tissue is dissected and weighed; from tissue; host or cells: corpus striatum of male Wistar rats, crude membranes
Protocol: INHIBITION OF ^3 H-SPIPERONE BINDING TO DOPAMINE D-2 RECEPTORS IN RAT CORPUS STRIATUM IN VITRO
By this method the inhibition by drugs of the binding of ^3 H-spiperone (0.5 nM) to dopamine D-2 receptors in membranes from rat corpus striatum is determined in vitro.
as §1, with “(Mol:Wistar)” for “(Mol:Wist)”, “(125-250” for “(125-200”, “striatal” for “brain”, “mM K-phosphate” for “nM Tris”, “7.4” for “7,7”, “1300” for “400”
Incubation tubes kept on ice in triplicate receive 100 μl of drug solution in water (or water for total binding) and 4000 μl of tissue suspension (final tissue content corresponds to 3.08 mg original tissue). The binding experimental is initiated by addition of 100 μl of ^3 H-spiperone (final concentration 0.5 nM) and by placing the tubes in a 37° C. water bath. After incubation for 10 min. the samples are filtered under vacuum (0-50 mBar) through Whatman GF/F filters (25 mm). The tubes are rinsed with 5 ml ice-cold buffer which are then poured on the filters. Thereafter, the filters are washed with 2×5 ml of buffer. The filters are placed in counting vials and 4 ml of appropriate scintillation fluid (e.g. Picofluor ™15) are added. After shaking for 1 h and storage 2 hrs in the dark the content of radioactivity is determined by liquid scintillation counting. Specific binding is obtained by subtracting the nonspecific binding in the presence of 10 μM of 6,7-ADTN.
as §2
^3 H-Spiperone=[phenyl-4-^3 H]-spiperone from Amersham International plc. England, specific activity 15-25 Ci/mmol.

5-HT2 receptors = target: T2, 5-HT2 receptors (Rattus norvegicus, UniProt P14842); test: Inhibition of 3H-ketanserin binding to 5-HT2 receptors in rat cortex in vitro; conditions: for IC50: 3H-Ketanserin 0.5 nM, rat cortex, 37° C., 30 min, read-out: Receptor Binding, IC50 5-HT2 3H-Ket
T2 construct: cortical tissue is dissected and weighed; from tissue; host or cells: cortex of male Wistar rats, crude membranes
Protocol: Method in Hyttel, Pharmacology & Toxicology, 61, 126-129, 1987.
as §1, with “(125-250” for “(125-200”, “cortical” for “brain”, “mM tris” for “nM Tris”, “7.7” for “7,7”, “C.). The centrifuge glassware used in this step has been rinsed by sonication for 10 min. in ethanol.” for “C.).”, “500” for “400”
Incubation tubes kept on ice in triplicate receive 100 μl of drug solution in water (or water for total binding) and 2000 μl of tissue suspension (final tissue content corresponds to 4 mg original tissue). […] After incubation for 30 min. the samples are filtered under vacuum (0-50 mBar) through Whatman GF/F filters (25 mm). The tubes are rinsed with 5 ml ice-cold buffer which are then poured on the filters. Thereafter, the filters are washed with 2×5 ml of buffer. The filters are placed in counting vials and 4 ml of appropriate scintillation fluid (e.g. Picofluor™15) are added. After shaking for 1 h and storage 2 hrs in the dark the content of radioactivity is determined by liquid scintillation counting. Specific binding is obtained by subtracting the nonspecific binding in the presence of 1 μM mianserin.
as §2
The IC50 value is determined as the concentration at which the binding is 50% of the total binding in control samples minus the nonspecific binding in the presence of 1 μM mianserin.

T2 sequence (P14842 whole entry): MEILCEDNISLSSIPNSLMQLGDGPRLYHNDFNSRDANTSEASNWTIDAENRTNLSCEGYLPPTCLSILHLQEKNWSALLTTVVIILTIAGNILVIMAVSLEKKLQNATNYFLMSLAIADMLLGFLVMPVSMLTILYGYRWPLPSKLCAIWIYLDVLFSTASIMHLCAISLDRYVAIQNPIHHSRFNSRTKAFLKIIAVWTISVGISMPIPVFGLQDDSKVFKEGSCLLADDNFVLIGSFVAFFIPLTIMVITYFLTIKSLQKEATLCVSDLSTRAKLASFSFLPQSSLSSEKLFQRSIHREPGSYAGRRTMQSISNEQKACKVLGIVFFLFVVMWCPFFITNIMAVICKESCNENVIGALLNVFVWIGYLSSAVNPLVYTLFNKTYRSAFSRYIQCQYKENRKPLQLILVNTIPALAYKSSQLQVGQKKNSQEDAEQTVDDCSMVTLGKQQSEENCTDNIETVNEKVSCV
T1 sequence (P61169 whole entry): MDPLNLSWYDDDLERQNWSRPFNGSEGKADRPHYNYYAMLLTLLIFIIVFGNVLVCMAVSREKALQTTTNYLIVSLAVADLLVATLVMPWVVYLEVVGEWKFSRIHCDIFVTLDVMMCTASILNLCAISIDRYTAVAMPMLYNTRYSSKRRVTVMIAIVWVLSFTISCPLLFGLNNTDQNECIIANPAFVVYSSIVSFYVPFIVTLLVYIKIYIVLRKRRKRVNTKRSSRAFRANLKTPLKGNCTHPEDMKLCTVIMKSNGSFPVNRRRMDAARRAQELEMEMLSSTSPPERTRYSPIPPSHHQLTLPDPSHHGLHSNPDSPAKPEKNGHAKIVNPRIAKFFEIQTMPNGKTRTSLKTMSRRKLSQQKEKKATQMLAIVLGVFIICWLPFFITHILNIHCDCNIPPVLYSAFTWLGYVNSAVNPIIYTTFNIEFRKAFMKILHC

SMILES	affinity to α1 adrenoceptors (in words) (α1 adrenoceptors)	IC50 (α1 adrenoceptors)	affinity to D-2 receptors (in words) (dopamine D-2 receptors)	IC50 (dopamine D-2 receptors)	affinity to 5-HT2 receptors (in words) (5-HT2 receptors)	IC50 (5-HT2 receptors)
OCCN1CCN([C@@H]2C[C@@H](c3ccc(F)cc3)c3ccc(C(F)(F)F)cc32)CC1 (racemic) [Tefludazine, reference compound]	high affinity to all three receptor types	17 nM	high affinity to all three receptor types	10 nM	high affinity to all three receptor types	4.6 nM
O=C1NCCN1CCN1CCN([C@H]2C[C@H](c3ccc(F)cc3)c3cc(C(F)(F)F)ccc32)CC1 (relative stereo) [Compound 1, Trans-1-[2-[4-[3-(4-fluorophenyl)-5-(trifluoromethyl)-2,3-dihydro-1H-inden-11-yl]-1-piperazinyl]ethyl]-2-imidazolidinone]	–	320 nM	–	760 nM	–	2.9 nM
OCCN1CCN([C@@H]2C[C@@H](c3ccc(F)cc3)c3cc(Cl)ccc32)CC1 (relative stereo) [Compound 3, Trans-4-[5-chloro-3-(4-fluorophenyl)-2,3-dihydro-1H-inden-1-yl)-1-piperazine-ethanol]	–	230 nM	–	2200 nM	–	25 nM
OCCN1CCN([C@@H]2C[C@@H](c3ccc(F)cc3)c3cc(C(F)(F)F)ccc32)CC1 (relative stereo) [Compound 5, Trans-4-[3-(4-fluorophenyl)-5-(trifluoromethyl)-2,3-dihydro-1H-inden-1-yl]-1-piperazineethanol]	–	380 nM	–	1300 nM	–	8.9 nM
Cc1cc([C@@H]2C[C@@H](N3CCN(CCO)CC3)c3ccc(Cl)cc32)cs1 (relative stereo) [Compound 6, Trans-4-[5-chloro-3-(2-methyl-4-thienyl)-2,3-dihydro-1H-inden-1-yl]-1-piperazineethanol]	–	1000 nM	–	2600 nM	–	56 nM
Cc1cc([C@@H]2C[C@@H](N3CCN(CCN4CCNC4=O)CC3)c3ccc(Cl)cc32)cs1 (relative stereo) [Compound 7, Trans-1-[2-[4-[5-chloro-3-(2-methyl-4-thienyl)-2,3-dihydro-1H-inden-1-yl]piperazine-1-yl]ethyl]-2-imidazolidinone]	–	240 nM	–	2800 nM	–	7.9 nM
Cc1ccc2c(c1)[C@@H](c1ccc(F)cc1)C[C@@H]2N1CCN(CCO)CC1 (relative stereo) [Compound 8, Trans-4-[3-(4-fluorophenyl)-5-methyl-2,3-dihydro-1H-inden-1-yl]-1-piperazine ethanol]	–	270 nM	–	1000 nM	–	12 nM
Cc1ccc2c(c1)[C@H](c1ccc(F)cc1)C[C@H]2N1CCN(CCN2CCNC2=O)CC1 (relative stereo) [Compound 9, Trans-1-[2-[4-[3-(4-fluorophenyl)-5-methyl-2,3-dihydro-1H-inden-1-yl]piperazine-1-yl]ethyl]-2-imidazolidinone]	–	220 nM	–	370 nM	–	3.7 nM
Fc1ccc([C@@H]2C[C@@H](N3CCNCC3)c3ccc(Cl)cc32)cc1 (relative stereo) [Compound 10, Trans-1-[5-chloro-3-(4-fluorophenyl)-2,3-dihydro-1H-inden-1-yl]piperazine]	–	840 nM	–	2500 nM	–	11 nM
CC(C)N1CCN(CCN2CCN([C@@H]3C[C@@H](c4ccc(F)cc4)c4cc(Cl)ccc43)CC2)C1=O (relative stereo) [Compound 11, Trans-1-[2-[4-[5-chloro-3-(4-fluorophenyl)-2,3-dihydro-1H-inden-1-yl]piperazin-1-yl]-ethyl]-3-isopropyl-2-imidazolidinone]	–	260 nM	–	280 nM	–	3.9 nM
CC(C)N1CCN(CCN2CCN([C@@H]3C[C@@H](c4ccc(F)cc4)c4cc(C(F)(F)F)ccc43)CC2)C1=O (relative stereo) [Compound 13, Trans-1-[2-[4-[3-(4-fluorophenyl)-5-(trifluoromethyl)-2,3-dihydro-1H-inden-1-yl]piperazin-1-yl]ethyl]-3-isopropyl-2-imidazolidinone]	–	350 nM	–	510 nM	–	3.7 nM
O=C1N(CCN2CCN([C@@H]3C[C@@H](c4ccc(F)cc4)c4cc(Cl)ccc43)CC2)CCN1c1ccccc1 (relative stereo) [Compound 17, Trans-1-[2-[4-[5-chloro-3-(4-fluorophenyl)-2,3-dihydro-1H-inden-1-yl]piperazin-1-yl]ethyl]-3-phenyl-2-imidazolidinone]	–	310 nM	–	300 nM	–	44 nM
CN1CCN(CCN2CCN([C@@H]3C[C@@H](c4ccc(F)cc4)c4cc(Cl)ccc43)CC2)C1=O (relative stereo) [Compound 18, Trans-1-[2-[4-[5-chloro-3-(4-fluorophenyl)-2,3-dihydro-1H-inden-1-yl]piperazin-1-yl]ethyl]-3-methyl-2-imidazolidinone]	–	600 nM	–	190 nM	–	2.8 nM
O=C1NCCN1CCN1CCN([C@@H]2C[C@@H](c3ccc(F)cc3)c3ccc(C(F)(F)F)cc32)CC1 (relative stereo) [Compound 39, reference compound]	–	8.3 nM	–	21 nM	–	–
O=C1NCCN1CCN1CCN([C@@H]2C[C@@H](c3ccc(F)cc3)c3ccc(Cl)cc32)CC1 (relative stereo) [Compound 41, reference compound]	–	3.1 nM	–	17 nM	–	–
Fc1ccc([C@H]2C[C@H](N3CCNCC3)c3ccc(Cl)cc32)cc1 (single isomer, unassigned) [(+)-10]	–	–	–	28000 nM	–	3300 nM
O=C1NCCCN1CCN1CCN([C@@H]2C[C@@H](c3ccc(F)cc3)c3cc(F)ccc32)CC1 (single isomer, unassigned) [(-)-33, (-)-Trans-1-[2-[4-[5-fluoro-3-(4-fluorophenyl)-2,3-dihydro-1H-inden-1-yl]piperazin-1-yl]ethyl]-tetrahydro-2(1H)-pyrimidinone]	–	–	–	4600 nM	–	57 nM
